The record followed here is patent publication US20100210506A1, “INTRANASAL ADMINISTRATION OF RAPID ACTING INSULIN” (MDRNA, INC., priority 2005, published 2010).

“Also recorded” adds a separate entry of the source.

The subject of data set [1] is S. aureus, A. niger, P. auerignosa. Briefly: Antimicrobial Effectiveness Testing, U.S. Pharmacopeial (USP <51>). The following applies: USP and EP AET, insulin nasal spray formulations at neutral pH. The data set is classed as cell-based. As to the method: AET Study 1 was conducted to determine the Antimicrobial Effectiveness (AET) of an insulin nasal spray placebo with methylparaben sodium, propylparaben sodium, and propylene glycol. Additionally, AET Study 1 examined the AET of increased EDTA alone. Approximately 120 mL of each formulation was manufactured and tested in duplicate (n=2 analyses per sample).
(§1) The AET methods used were in compliance with the requirements for U.S. Pharmacopeial (USP) and European Pharmacopeial (EP) AET and are described in Tables 34 and 35, respectively. The formulations were also tested for pH (per SOP 403), appearance (visual), and osmolality (per SOP 4000).

Data set [2] can be described thus: pH, appearance (visual) and osmolality of AET formulations. The data set is classed as physicochemical. To be noted: preservative within insulin nasal spray formulation. As for the experimental part:
as §1

With `Cc1cccc(O)c1` [m-cresol], in data set [1], the “antimicrobial effectiveness as preservative” value (shortened to “antimicrobial effectiveness”) is “not effective preservatives”.

For `OCc1ccccc1` [Benzyl alcohol], the “antimicrobial effectiveness” value in data set [1] is “not effective preservatives at neutral pH; also recorded: ineffective as antimicrobial reagents”; in data set [1] (listed as benzyl alcohol), “not effective preservatives”.

Turning to `CCO` [Ethanol], in data set [1], the “antimicrobial effectiveness” value is reported as “antimicribal activity similar to that of methylparaben sodium/propylparaben sodium/propylene glycol; also recorded: not an effective preservative (at 1%)”.

As to `CCCCCCCCCCCCC[N+](C)(C)Cc1ccccc1` [Benzalkonium chloride], the results for the “antimicrobial effectiveness” value in data set [1] and in data set [1] (listed as benzakonium chloride) were “excellent preservative” and “best antimicrobial performance”, respectively. For the same compound, the compatibility with insulin entry in data set [2] is recorded as “incompatible with insulin”; in data set [2] (listed as benzakonium chloride), “incompatible with insulin (caused precipitation)”.

For `O=C([O-])c1ccccc1.[Na+]` [sodium benzoate], the “antimicrobial effectiveness” value in data set [1] was “not effective preservatives at neutral pH”.
